We go through 3 compounds from patent US11873292B2, “Trans-indoline cyclopropylamine chemical compound, and method for preparation, pharmaceutical composition, and use thereof” (Shanghai Institute of Materia Medica, Chinese Academy of …, priority 2016, dated 2024).

The target in one series is human recombinant MAOB (Homo sapiens (Human), UniProt P27338). The series can be described thus: MAOB in vitro activity experiment (MAO-Glo). Type of series: biochemical.
The target of a further series is Human recombinant MAOA (Homo sapiens (Human), UniProt P21397). The series can be described thus: MAOA in vitro activity experiment (MAO-Glo). The format is biochemical.
The target in a further series is Human recombinant LSD1 (Homo sapiens (Human), UniProt O60341). The series can be described thus: LSD1 in vitro activity assay (LANCE Ultra LSD1 Histone H3-Lysine 4 Demethylase Assay). The format is biochemical. The conditions noted are these: LSD1 inhibition. Background: Time-resolved FRET reads energy transfer from a long-lived donor to a nearby acceptor.

human recombinant MAOB, sequence (P27338 whole entry): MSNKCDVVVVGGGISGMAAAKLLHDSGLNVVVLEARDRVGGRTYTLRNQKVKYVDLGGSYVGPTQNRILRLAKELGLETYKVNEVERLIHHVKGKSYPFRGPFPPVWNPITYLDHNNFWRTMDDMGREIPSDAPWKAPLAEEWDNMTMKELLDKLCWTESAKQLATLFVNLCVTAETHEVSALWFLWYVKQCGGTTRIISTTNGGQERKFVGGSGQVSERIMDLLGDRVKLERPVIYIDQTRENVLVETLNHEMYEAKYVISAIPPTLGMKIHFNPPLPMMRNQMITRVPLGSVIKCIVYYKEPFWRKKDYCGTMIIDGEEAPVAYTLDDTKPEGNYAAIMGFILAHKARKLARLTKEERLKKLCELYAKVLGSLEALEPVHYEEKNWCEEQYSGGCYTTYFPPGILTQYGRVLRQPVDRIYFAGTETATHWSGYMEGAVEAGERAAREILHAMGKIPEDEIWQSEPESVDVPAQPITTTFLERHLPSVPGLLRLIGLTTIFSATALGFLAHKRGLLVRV
Human recombinant MAOA, sequence (P21397 whole entry): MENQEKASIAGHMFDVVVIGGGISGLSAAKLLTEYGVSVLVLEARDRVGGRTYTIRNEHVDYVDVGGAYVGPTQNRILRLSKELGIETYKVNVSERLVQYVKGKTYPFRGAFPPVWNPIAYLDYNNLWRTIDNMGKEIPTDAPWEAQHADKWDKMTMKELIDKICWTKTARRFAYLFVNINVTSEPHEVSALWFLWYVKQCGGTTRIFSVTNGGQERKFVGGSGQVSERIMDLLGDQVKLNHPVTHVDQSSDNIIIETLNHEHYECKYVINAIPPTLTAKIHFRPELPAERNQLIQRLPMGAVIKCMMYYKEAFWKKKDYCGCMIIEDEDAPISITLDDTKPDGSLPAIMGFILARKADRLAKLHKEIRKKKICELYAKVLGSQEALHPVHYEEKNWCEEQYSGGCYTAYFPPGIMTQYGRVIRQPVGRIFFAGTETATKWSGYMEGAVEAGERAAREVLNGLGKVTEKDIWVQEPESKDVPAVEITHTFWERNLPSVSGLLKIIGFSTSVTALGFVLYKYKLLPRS

As a reminder, the IC50 is the concentration at which inhibition is half-maximal. The term melting point denotes the temperature, or range, at which the solid turns liquid. Consider `O=C(c1ccc(-c2ccccc2)cc1)N1CCc2cc([C@@H]3C[C@H]3NCC3CCNCC3)ccc21` (relative stereo) [Compound A47, Trans-biphenyl-4-yl(5-(2-(piperidin-4-ylmethylamino)cyclopropyl)indolin-1-yl)methanone], for which the melting point was in the range of 179 to 180 °C. Further, at human recombinant MAOB, the half-maximal inhibitory concentration (IC50) was 7.33 ± 0.11 µM. Moreover, the IC50 on Human recombinant MAOA was over 100 µM. For the same compound, on Human recombinant LSD1, the IC50 is 0.0102 ± 0.00159 µM.
The corresponding values for `O=C(c1cccc(C(F)(F)F)c1)N1CCc2cc([C@@H]3C[C@H]3NCC3CCNCC3)ccc21` (relative stereo) [Compound A48, Trans-(5-(2-(piperidin-4-ylmethylamino)cyclopropyl)indolin-1-yl)(3-(trifluoromethyl)phenyl) methanone] are 230 to 232 °C, 42.6 ± 0.78 µM, over 100 µM and 0.02557 ± 0.00011 µM.
The corresponding values for `O=C(OCc1ccccc1)N1CCc2cc([C@@H]3C[C@H]3NCC3CCNCC3)ccc21` (relative stereo) [Compound A50, Trans-benzyl-5-(2-(piperidin-4-ylmethylamino)cyclopropyl)Indoline-1-carboxylate] are 215 to 218 °C, 10.7 ± 1.22 µM, over 100 µM and 0.0353 ± 0.00348 µM.
